A word on the IC50: it is the midpoint of a concentration-inhibition curve.

Read-outs that look alike come from different tables or passages of the source.

Experiment [1] addresses T1, TTR in undiluted normal human reference plasma (Homo sapiens, UniProt P02766).
T1 construct: The TTR in plasma was immunoprecipitated by sheep anti-human prealbumin polyclonal antibody; tissue Precision Biologic Inc., Nova Scotia, Canada
The experiment is described as follows: 125I-T4 displacement assay in neat normal human plasma. Format: binding. The settings on record: neat normal human plasma; 4-parameter logistic fit. The text has this:
The assay was adapted from one described previously. Briefly, test ligand and ^125I-T4 (Perkin Elmer Inc., Waltham, MA) were mixed with undiluted normal human reference plasma (Precision Biologic Inc., Nova Scotia, Canada). The TTR in plasma was immunoprecipitated by sheep anti-human prealbumin polyclonal antibody (The Binding Site Group Ltd., Birmingham, UK). The immunoprecipitate was washed with buffer and their radioactivity measured with a 2470 WIZARD automatic gamma counter (Perkin Elmer Inc., Waltham, MA). […] Percentage of total radioligand binding for samples of different ligand concentration was then calculated as follows: […]
To calculate IC50 values, percentage of total radioligand binding at different concentration points were entered in SigmaPlot™ 11.0. Titration curves were done in triplicates with a minimum of 5 data points fitted by 4-Parameter Logistic Function.

Experiment [2] deals with T2, TTR (Homo sapiens, UniProt P02766).
T2 construct: purchased SCIPAC (Sittingbourne, Kent, UK) P171-1
Put plainly: Isothermal titration calorimetry (ITC). Format: binding. How it is done: All ITC experiments were conducted on an iTC200 calorimeter (GE Healthcare), and the settings were 25 °C, stir at 1000 RPM, 1–2 μL injection spaced with 100–150 seconds, reference power: 6 μcal/sec. Isotherms were fitted using ORIGIN 7 software (OriginLab, MA, USA). To prepare TTR ITC protein solution (5 mL), purified and freeze-dried human TTR was weighted and dissolved in 310 μL of pure water. The reconstituted protein solution was then desalted by spin column (Bio-Rad, Bio-Gel P6) and the eluted volume was transferred to a 15mL falcon tube. The protein solution was further diluted with 10x Phosphate Buffered Saline (PBS, 500 μL), DMSO (150 μL) and water, (f/c: 4.3 mM Na2HPO4, 137 mM NaCl, 2.7 mM KCl, 1.47 mM KH2PO4, 3% DMSO v/v, TTR 19.35–25 μM, pH 7.8). UV A260/280 was measured to obtain the actual protein concentration using a calculated extinction coefficient of 18450 M^-1 cm^-1. To prepare ligand ITC solution (1 mL), 30 μL of ligand stock in DMSO was diluted with 10x PBS (100 μL) and water (f/c: 4.3 mM Na2HPO4, 137 mM NaCl, 2.7 mM KCl, 1.47 mM KH2PO4, 3% DMSO v/v, Ligand 280–600 μM, pH 7.8).

Experiment [3] has as its target T3, Human transthyretin (TTR) thyroxine binding sites (Homo sapiens, UniProt P02766).
T3 construct: purchased SCIPAC (Sittingbourne, Kent, UK) P171-1
Put plainly: TTR CZE Free Probe Peak Height Restoration (FPPHR) assay, 8-ANS displacement. How it is done:
CZE assays development and fragment screening were performed on a Beckman P/ACE MDQ capillary electrophoresis system (Beckman Coulter Inc., Brea, CA) operated by 32 Karat™ software. All capillaries (Polymicro Technologies, Phoenix, AZ) used were internally coated with polyvinyl alcohol and of around 30 cm in length, 75 microns in internal diameter. Capillary temperature was maintained at 20 °C by recirculating fluorinated fluid coolant during electrophoresis. Sample trays and buffer trays temperature were maintained at 4°C and ambient respectively. For every electrophoretic run, the capillary was pressure rinsed and prefilled with electrophoresis buffer also known as background electrolyte (termed as Running Buffer hereafter) before injection. After each electrophoretic run, the capillary was rinsed with Running Buffer and H2O by pressure (20 psi for 1 minute). Three Running Buffers (RB), A: 20 mM Tris pH 7.5, 1 mM KCl, 1.62 mM NaCl; B: 20 mM HEPES pH 7.0, 2 mM CaCl2 and C: 20 mM HEPES pH 7.0, 2 mM CaCl2, 1% DMSO were used. All CE traces were analysed by 32Karat™ Software with a built-in automatic peak integration algorithm.
Control 1 Inject Buffer (IB) containing 30 μM 8-ANS was prepared by mixing 1 μL of 3 mM 8-ANS DMSO stock with 99 μL of Running Buffer B in a 0.2 mL PCR tube. Control 2 Inject Buffer was prepared by mixing 1μL of 3 mM 8-ANS DMSO stock with 20 μL of 100 μM tetrameric TTR stock in Running Buffer B and 79 μL of Running Buffer B. The final concentrations (f/c) were 8-ANS 30 μM, TTR 20 μM and 1% DMSO v/v.
The maximum Free Probe Peak Height (Control 1 Peak Height) was determined by Outlet Injection (see Fig 1) of Control 1 with an injection pressure of 0.5 psi for 5 seconds (equivalent to ≈ 20–30 nL). An identical injection of Control 2 provides the minimum Free Probe Peak Height (Control 2 Peak Height) enabling calculation of % of bound and unbound, i.e., free 8-ANS. To determine the 8-ANS peak height in Control 1 and Control 2, the capillary was prefilled with Buffer C and electrophoresis carried out at 10 kV (Normal Polarity, Fig 1) with UV monitoring at 230 nm. For displacement analysis, ligand DMSO stock was diluted in Buffer B and used to fill the capillary as the Running Buffer. Electrophoresis commenced after injection of Control 2, thus the injected 8-ANS-TTR complex migrates inside a capillary filled with the test ligand. The observed 8-ANS peak height is defined as Sample Peak Height and the displaced 8-ANS can be calculated as:
\% of Free Probe Peak Height Restoration= Sample Peak Height−Control 2 Peak Height/Control 1 Peak Height−Control 2 Peak Height

[4] abbreviates: N = number of non-hydrogen atoms.

On to `c1ccc2c(-c3cn[nH]c3)ccnc2c1` [SFL001535, 4-(3H-pyrazol-4-yl)quinoline], for which the IC50 in experiment [1] was 34500 ± 12400 nM. Besides, the Kd is 260 nM in experiment [2] (25 °C, PBS pH 7.8, 3% DMSO, read-out: ITC Kd1 ± SD (N = 3)); 1960 nM in experiment [2] (25 °C, PBS pH 7.8, 3% DMSO, read-out: ITC Kd2 ± SD (N = 3)); 260 ± 88.2 nM in experiment [2] (Fig 8 isotherm, ± standard error of curve fitting, read-out: ITC Kd1 of shown isotherm). In experiment [2] (setting [4]), the “Kd1 LE (Ligand Efficiency, ΔG/N)” value is on record as 0.60 kcal/mol. Also, the “Kd2 LE (Ligand Efficiency, ΔG/N)” value in experiment [2] (setting [4]) is 0.52 kcal/mol. In experiment [3] (compound 10 µM in Running Buffer, 10% minimum for a binder), the “FPPHR % tested at 10 µM” value was determined as 34.10% tested at 10 µM. In addition, the “FPPHR % at 100 μM” value in experiment [3] (compound 100 μM in Running Buffer, 10% minimum for a binder) amounted to 64.23%. Besides, in experiment [3] (read-out: FPPHR % at 50 μM), the inhibition at 50 µM was 60.5%.

Source of the values: paper PMC12077799, “Fragment-based drug discovery for transthyretin kinetic stabilisers using a novel capillary zone electrophoresis method” (PLOS One, 2025).
